Calls of active or inactive are those of the source.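 Rule for the calls: active = compounds giving half or more protection of infected cells from virus-caused growth loss, again on retest; inactive = the rest.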 Where a SMILES comes first, the peptide text is derived from it. [ ]: non-standard residue; d: D form. pGlu = O=C1CC[CH](C(=O)O)N1; Thz = O=C(O)[CH]1CSCN1
Test system: CEM cells HIV-1 protection, formazan growth assay
Experiment: NCI AIDS Antiviral Assay
Settings: for IC50: measured here: growth of uninfected CEM cells
Method in brief: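 Human CEM cells, uninfected and HIV-1-infected, received five drug concentrations, and growth was read by soluble formazan assay. Compounds giving at least 50% protection were retested; reproducible 100% protection defined confirmed active.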

Structure (SMILES) | EC50 [µM] | IC50 [µM] | outcome
C[CH2][Sn]([CH2]C)([O]C(=O)c1cc(OC)c(OC)c(OC)c1)[O][Sn]([CH2]C)([CH2]C)[O]C(=O)c1cc(OC)c(OC)c(OC)c1 | > 6.61 | > 6.61 | 
Cc1[nH]n(C(=O)Cc2ccccc2)c(=O)c1/C=C1\C(=O)C=Cc2ccccc21 | > 51.3 | > 51.3 | 
C/C(=N/NC(=S)N(Cc1ccccn1)Cc1ccccn1)c1cnccn1 | 0.2 | 0.339 | 
NC(=S)N/N=C1\NC(=O)/C(=C/c2ccc3c(c2)OCO3)S1 | > 200 | 158 | 
CCOC(=O)NC(Nc1cc(Cl)ccc1OC)(C(F)(F)F)C(F)(F)F | > 200 | 102 | 
COC(=O)C(CC(C)C)NC(=O)NC12CC3CC(CC(F)(C3)C1)C2 (stereo not given) | > 75.9 | > 75.9 | 
O=C1OC(=O)C2C1C1(c3ccccc3)C(=O)C2(c2ccccc2)C(c2ccccc2)=C1c1ccccc1 (stereo not given) |  |  | inactive
C=C(C)C(=O)O[C@H]1C/C(CO)=C/CCC(=C)C(OC(C)=O)[C@H]2OC(=O)C(=C)[C@H]12 (stereo not given in full) | > 200 | 1.05 | 
OC1[C@H]([C@H]2CCCC[C@@H]2O)CCC[C@@H]1[C@@H]1CCCC[C@H]1O (stereo not given in full) | > 170 | > 170 | 
CCCCCCC(=O)c1c(O)c2ccccc2oc1=O | > 200 | 29.5 | 
CCN=C1SC2C(=O)N(C)C(S1)C(=O)N2C | > 692 | 36.3 | 
Cc1nc(C(N)=S)sc1C(=O)CC(=O)C(=O)Nc1ccc(Br)cc1 | > 85.1 | > 85.1 | 
Cc1cc2c(C(C)C)c(O)c(O)c(C=NCCc3ccccc3)c2c(O)c1-c1c(C)cc2c(C(C)C)c(O)c(O)c(C=NCCc3ccccc3)c2c1O | > 200 | 8.71 | 
O=c1[nH]c(=O)n(C2CC(O)C(CO)O2)c2ncncc12 (stereo not given) | > 200 | > 200 | 
CCC1(CC)COP(=S)(SCCOC(=O)c2ccccc2)OC1 | > 200 | 46.8 | 
O=C1CCC(C(=O)N2CSCC2C(=O)O)N1 (stereo not given) ([pGlu]-[Thz]-OH; configuration not given here) | > 200 | > 200 | 
Cc1ccc(C(=O)N2CCN(C(=O)c3ccc(C)cc3)c3ccccc32)cc1 | > 10.2 | 1.82 | 
Cc1cn(C2CCC3(CO)CC23)c(=O)[nH]c1=O (stereo not given) | > 50.1 | > 50.1 | 
CC1=C(C(=O)NCc2ccccc2)C(c2ccccc2[N+](=O)[O-])C(C(=O)NCc2ccccc2)=C(C)N1 | > 7.59 | > 7.59 | 
COc1ccc2cc(C(=O)Nc3ccc(O)c(C(=O)O)c3)ccc2c1OC | > 200 | > 200 | 
COc1ccccc1C(C(=O)NC1CN2CCC1CC2)c1ccsc1 (stereo not given) | > 200 | 151 | 
NCCCCCCCCCCC(=O)O | 151 | > 200 | 

Structure (SMILES) | EC50 [µM] | IC50 [µM] | outcome
Cc1nn2c(c1C#N)NNc1c-2sc(=N)nnc1=O | 31.6 | 43.7 | 
CCCCCCCCC/C=C/C=C/C(=O)NCC(=O)NC1C(O)C(O)C(Nc2ncnc3nc[nH]c23)OC1C(O)CO (stereo not given) | > 43.7 | 0.158 | 
O=C(Nc1ccc(Oc2ccc(Cl)cc2)c(Cl)c1)c1cc(I)cc(I)c1O | > 200 | 11.5 | 
Cc1cccc2c1c1ccc3c(c1n2C)C(=O)C=CC3=O | > 18.2 | 9.77 | 
COc1ccc(C)c2c1N[C@](C)([C@]1(C)Nc3c(OC)ccc(C)c3C1=O)C2=O | > 100 | > 100 | 
COC(=O)C1C/C(=C/N(C)C)C(=S)N1 (stereo not given) | > 200 | > 200 | 
CNc1ccc(Cl)cc1C(=O)N1CCC[C@H]1CO | > 200 | > 200 | 
c1cc2nnc1SCCCSc1ccc(nn1)SCCCSc1ccc(nn1)SCCCS2 | > 100 | > 100 | 
O=C1NC(O)c2cccc(Cl)c2O1 (stereo not given) |  |  | inactive
N=c1c2ccccc2nc2oc3ccccc3n12 | > 200 | > 200 | 
CN(C)C1C(=O)C(C(=O)NCN2CCOB(c3ccccc3)OCC2)=C(O)C2(O)C(O)=C3C(=O)C4C(O)=CC=CC4C(C)(O)C3CC12 (stereo not given) | 31.6 | 39.8 | 
Nc1c(-c2ccccc2)oc2ccccc2c1=O | > 200 | > 200 | 
COc1cccc(/C=C2/Sc3scc(-c4ccccc4)[n+]3C2=O)c1O | > 200 | 11.7 | 
CCCc1cc(=O)oc2c3c(cc(OC)c12)O[C@H](C)C(C)[C@H]3O (stereo not given in full) | > 200 | 51.3 | 
CC12OC(=O)C(C#N)C1(C)C1C(=O)CCCC12 (stereo not given) |  |  | inactive
Cc1nc2cccc(F)c2c(=O)n1C1CCCCNC1=O (stereo not given) | > 200 | > 200 | 
C=Cc1nc2nnc(CCCCCCCCc3nnc4nc(C=C)[nH]n34)n2[nH]1 | > 200 | 40.7 | 
CC1=C(C(=O)Nc2cc(=O)n(C)c(=O)n2C)C(c2cccc([N+](=O)[O-])c2)C(C(=O)Nc2cc(=O)n(C)c(=O)n2C)=C(C)N1 | > 31.6 | > 31.6 | 
CN(C)C(=O)C(CC[N+]1(C)CCCC12CCCCC2)(c1ccccc1)c1ccccc1 (stereo not given) | > 200 | 74.1 | 
O=c1oc2ccccc2c2c1SC(c1ccncc1)C2 (stereo not given) | > 200 | > 200 | 
O=[N+]([O-])c1ccc(-n2nc3ccc4c(no[n+]4[O-])c3[n+]2[O-])c([N+](=O)[O-])c1 | > 20 | 0.407 | 
COC1OC(CS)C(N)C1OS(C)(=O)=O (stereo not given) | > 200 | 155 | 

Structure (SMILES) | EC50 [µM] | IC50 [µM] | outcome
Nc1nc2n(n1)C(=O)C(=O)N2 | > 115 | > 115 | 
CC(C)NS(=O)(=O)c1ncnc2nc[nH]c12 |  |  | inactive
C=CCc1cc2c(C)cc(=O)oc2c(C)c1OC(C)=O | > 19.1 | > 19.1 | 
CO/C(=N\Nc1ccc([N+](=O)[O-])cc1)P(=O)(OC(C)C)OC(C)C | > 12.9 | > 12.9 | 
O=C1NC(=O)C(=CN2C(=O)/C(=C/c3ccc([N+](=O)[O-])cc3)SC2=S)C(=O)N1 | > 200 | 115 | 
CC1(Cl)CC(O)C2(CC1Br)C1(C)OC1C1OC1(Br)C2(C)C (stereo not given) | > 200 | 15.1 | 
CC(=O)C(C)(CCC(=O)O)CCC(=O)O | > 955 | > 955 | 
COC(=O)C(=O)C(C(=O)C(=O)Nc1ccc([N+](=O)[O-])cc1C#N)c1nc2ccc([N+](=O)[O-])cc2[nH]c1=O (stereo not given) | > 490 | 209 | 
C=C(C)COC(=O)C1C2CC(C3OC23)C1C(=O)OCC(=C)C (stereo not given) | > 200 | 112 | 
O=c1[nH]c(=O)n2n1C1C=CC2CC1 | > 200 | > 200 | 
Cc1ccc(S(=O)(=O)n2c3c(c4ccccc42)CCN2C(=O)C(S(=O)(=O)c4ccccc4)=CCC32)cc1 (stereo not given) | > 200 | 0.589 | 
O=C(Cc1ccccc1)Nn1c(-c2ccccc2)nc2ccccc2c1=O | 123 | > 200 | 
CC(=O)NC(C=O)C(O[C@H](C)C(=O)NC(C)C(=O)NC(CCC(N)=O)C(=O)OCc1ccccc1)C(O)C(O)COC(=O)CCCCCNc1cccc2[nH]c3ccccc3c(=O)c12 (stereo not given in full) | > 204 | 126 | 
O=C1c2cccc3cc([N+](=O)[O-])cc(c23)C(=O)N1Cc1cccnc1 |  |  | inactive
NC(CSP(=O)(O)O)=NCC12CC3CC(CC(C3)C1)C2 |  |  | inactive
CN1CCCC(CNC23CC4CC(CC(C4)C2)C3)C1 (stereo not given) | > 501 | > 501 | 
COc1ccc(CCNC(=O)CCCCCO)cc1OC | > 200 | 195 | 
CN(C)c1nc(N(C)C)nc(N(C)CN(C)c2ccc(Cl)cc2)n1 | > 50.1 | > 50.1 | 
O=C1Nc2ccccc2S/C1=C/c1ccccc1 | > 20.4 | > 20.4 | 
Cc1ccc2c(c1)[n+]([O-])c(N)n[n+]2[O-] | > 200 | 19.1 | 
COc1ccccc1/C=C1\N=C(c2ccccc2)OC1=O | > 200 | 17.4 | 
COC(=O)[C@H](Cc1ccccc1)NC(=O)OCC1OC(n2cc(C)c(=O)[nH]c2=O)CC1N=[N+]=[N-] (stereo not given in full) | > 200 | > 200 | 

Structure (SMILES) | EC50 [µM] | IC50 [µM] | outcome
CC(C)=CCC1(c2ccccc2)Oc2ccccc2-n2cccc2C1=O (stereo not given) | > 200 | 138 | 
O=C(c1c(F)c(F)c(F)c(F)c1F)N1CCN(C(=O)c2c(F)c(F)c(F)c(F)c2F)C1=S | > 200 | 1.26 | 
N#CC1(C#N)C(C#N)(C#N)C1(C#N)C(N)=O | > 200 | > 200 | 
CCOC(=O)c1ccc(NCc2ccc3oc(=O)c(-c4ccccc4)nc3c2)cc1 | > 135 | 38.9 | 
CCOC(=O)C1Nc2ccccc2[C@H]2OCC[C@@H]12 (stereo not given in full) | > 525 | > 525 | 
Cc1cn(C(CO)OC(CO)CN(O)C2C3CC4CC(C3)CC2C4)c(=O)[nH]c1=O (stereo not given) | > 200 | > 200 | 
COCN1C(=O)CN=C(c2ccccc2)c2cc(NO)ccc21 | 16.2 | 21.9 | 
COc1ccc(C(=O)NNC(=O)c2nsc3ccccc23)cc1 | > 41.7 | > 41.7 | 
C=C(CCOC)CCC1CCCCC(=C)[C@H]1O (stereo not given in full) | > 200 | > 200 | 
c1ccc(COc2nc3ccc(C45CC6CC(CC(C6)C4)C5)cc3[nH]2)cc1 | > 200 | 7.41 | 
O=C1OC(=O)C2=C1C1c3ccccc3C2c2ccccc21 | > 95.5 | 22.4 | 
Cc1ccc(S(=O)OCC23CC4CC(CC(C4)C2)C3)cc1 (stereo not given) |  |  | inactive
C#CC(O)/C=C/C(O)CCCC(O)CC#CC(O)C#CC(O)CCCC(O)/C=C/CCCC(=O)CCCCCCCCCCCCCCCC(O)C(O)C#CC(=O)O (stereo not given) | 10 | 53.7 | 
O=C1O/C(=C(\Br)c2ccc([N+](=O)[O-])cc2)c2ccccc21 | > 200 | 16.6 | 
Cc1occc1C(=S)Nc1ccc(Cl)c(/C=N/OC(C)C)c1 | 0.0263 | 18.2 | 
CCc1c(Cc2ccccc2)n(COCCSc2ccccc2)c(=O)[nH]c1=O | 3.24 | 26.9 | 
O=c1[nH]c2nccn2c2c1SCCN2 | > 200 | > 200 | 
CC(=O)/C(=C/n1ccc(=O)[nH]c1=S)C(=O)Nc1ccccc1C | > 200 | > 200 | 
CCCCCCCCCCCCNC1=C(Cl)C(=O)C(=O)c2cccnc21 | 53.7 | 174 | 
CCOC(=O)/C=C/c1nc(C#N)c(N)o1 | > 200 | 102 | 

From PubChem BioAssay AID179 (DTP/NCI, 2004)
